Measurements taken from patent publication US20110082182A1, “THERAPEUTIC ANTIVIRAL PEPTIDES” (INTERMUNE, INC., priority 2009, published 2011).

Tests used:
[1] = system: HCV sub-genomic replicon (I377/NS3-3') in HuH-7 hepatoma cells (GS4.3); test: Quantitation by ELISA of NPTII in the HCV sub-genomic replicon, GS4.3; format: cell-based; conditions: Hepatitis C virus, GS4.3 replicon cells, 72 h
Text: Quantitation by ELISA of the Selectable Marker Protein, Neomycin Phosphotransferase II (NPTII) in the HCV Sub-Genomic Replicon, GS4.3
The HCV sub-genomic replicon (I377/NS3-3′, accession No. AJ242652), stably maintained in HuH-7 hepatoma cells, was created by Lohmann et al. Science 285: 110-113 (1999). The replicon-containing cell culture, designated GS4.3, was obtained from Dr. Christoph Seeger of the Institute for Cancer Research, Fox Chase Cancer Center, Philadelphia, Pa.
GS4.3 cells were maintained at 37° C., 5%CO2, in DMEM (Gibco 11965-092) supplemented with L-glutamine 200 mM (100×) (Gibco25030-081), non-essential amino acids (NEAA) (Biowhittaker 13-114E), heat-inactivated (HI) Fetal Bovine Serum (FBS) (Hyclone SH3007.03) and 750 μg/mL geneticin (G418) (Gibco 10131-035). Cells were sub-divided 1:3 or 4 every 2-3 days.
24 h prior to the assay, GS4.3 cells were collected, counted, and plated in 96-well plates (Costar 3585) at 7500 cells/well in 100 μL standard maintenance medium (above) and incubated in the conditions above. To initiate the assay, culture medium was removed, cells were washed once with PBS (Gibco 10010-023) and 90 μl Assay Medium (DMEM, L-glutamine, NEAA, 10% HI FBS, no G418) was added. Inhibitors were made as a 10× stock in Assay Medium, (3-fold dilutions from 10 μM to 56 pM final concentration, final DMSO concentration 1%), 10 μL were added to duplicate wells, plates were rocked to mix, and incubated as above for 72 h.
An NPTII Elisa kit was obtained from AGDIA, Inc. (Compound direct ELISA test system for Neomycin Phosphotransferase II, PSP 73000/4800). Manufacturer's instructions were followed, with some modifications. 10× PEB-1 lysis buffer was made up to include 500 μM PMSF (Sigma P7626, 50 mM stock in isopropanol). […] Plates were read at 450 nm on a Molecular Devices Versamax plate reader.
Inhibitor effect was expressed as a percentage of DMSO-treated control signal, and inhibition curves were calculated using a 4-parameter equation: y=A+4B−A)/(1+((C/x)̂C))), where C is half-maximal activity or EC50.

[2] = target: T1, NS3/NS4A-2 (full-length HCV NS3 protease) (Hepatitis C virus genotype 1a, UniProt P27958); test: NS3 Inhibition Assay (NS3-NS4 protease assay, RETS1 substrate, fluorescence kinetic read); format: biochemical; conditions: NS3/NS4A-2 protease
T1 construct: Recombinant E. coli or Baculovirus full-length NS3 was diluted to 3.33 μM with assay buffer; made in house; host or cells: E. coli or baculovirus (BV) expression
Protocol: NS3 Complex Formation with NS4A-2.
Recombinant E. coli or Baculovirus full-length NS3 was diluted to 3.33 μM with assay buffer and the material was transferred to an eppendorf tube and placed in a water bath in a 4° C. refrigerator. The appropriate amount of NS4A-2 diluted to 8.3 mM in assay buffer was added to an equal the volume of NS3 above (conversion factor—3.8 mg/272 μL assay buffer). The material was transferred to an eppendorf tube and placed in water bath in a 4° C. refrigerator.
After equilibration to 4° C., equal volumes of NS3 and NS4A-2 solutions were combined in an eppendorf tube, mixed gently with a manual pipettor, and incubated for 15 minutes in the 4° C. water bath. Final concentrations in the mixture are 1.67 μM NS3, 4.15 mM NS4A-2 (2485-fold molar excess NS4A-2).
After 15 minutes at 4° C., the NS3/NS4A-2 eppendorf tube was removed and placed in a room temperature water bath for 10 minutes. NS3/NS4A-2 was aliquoted at appropriate volumes and stored at −80° C. (E. coli NS3 run at 2 nM in assay, aliquot at 25 μL. BV NS3 run at 3 nM in assay, aliquot at 30 μL).
Step a. Sample compounds were dissolved to 10 mM in DMSO then diluted to 2.5 mM (1:4) in DMSO. Typically, compounds were added to an assay plate at 2.5 mM concentration, yielding upon dilution a starting concentration of 50 μM in the assay inhibition curve. Compounds were serial diluted in assay buffer to provide test solutions at lower concentrations.
Step 1. The E. coli. NS3/NS4A-2 was diluted to 4 nM NS3 (1:417.5 of 1.67 μM stock−18 μL 1.67 μM stock+7497 μL assay buffer). […]
The plate was read in kinetic mode on the Molecular Devices SpectraMax Gemini XS plate reader. Reader settings: Read time: 30 minutes, Interval: 36 seconds, Reads: 51, Excitation λ: 335 nm, Emission λ: 495 nm, cutoff: 475 nm, Automix: off, Calibrate: once, PMT: high, Reads/well: 6, Vmax pts: 21 or 28/51 depending on length of linearity of reaction
IC50s are determined using a four parameter curve fit equation, and converted to Ki's using the following Km's: […]

T1 sequence (P27958 1027-1657): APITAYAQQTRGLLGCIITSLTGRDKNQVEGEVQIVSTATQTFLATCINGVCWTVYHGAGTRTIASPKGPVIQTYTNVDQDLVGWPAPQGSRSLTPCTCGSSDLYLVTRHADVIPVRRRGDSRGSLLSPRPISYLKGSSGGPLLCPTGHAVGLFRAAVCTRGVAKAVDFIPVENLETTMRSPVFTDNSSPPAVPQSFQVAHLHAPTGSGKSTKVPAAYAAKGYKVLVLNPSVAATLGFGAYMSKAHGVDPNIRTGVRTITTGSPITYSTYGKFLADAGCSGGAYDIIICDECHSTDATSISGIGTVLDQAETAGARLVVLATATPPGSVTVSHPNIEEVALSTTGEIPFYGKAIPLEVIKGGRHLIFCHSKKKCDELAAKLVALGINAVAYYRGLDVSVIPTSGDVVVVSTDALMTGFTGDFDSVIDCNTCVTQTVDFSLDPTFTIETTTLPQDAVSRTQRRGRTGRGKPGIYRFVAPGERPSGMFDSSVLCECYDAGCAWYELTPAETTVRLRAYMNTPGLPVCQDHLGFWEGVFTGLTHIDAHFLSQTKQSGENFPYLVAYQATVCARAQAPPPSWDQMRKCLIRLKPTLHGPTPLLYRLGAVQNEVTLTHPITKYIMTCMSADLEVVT

| Compound | EC50 [1] [nM] | IC50 [2] [nM] |
| --- | --- | --- |
| CC[C@@H]1C[C@@]12NC(=O)[C@@H]1C[C@H](CN1C(=O)[C@@H](NC(=O)OC(C)(C)C)C(C)(C)C)Oc1nc3ccccc3n1C/C=C\CCCC1(CC1)S(=O)(=O)NC2=O [Compound 1] | > 1000 | < 100 |
| CC[C@@H]1C[C@@]12NC(=O)[C@@H]1C[C@H](CN1C(=O)[C@@H](NC(=O)OC(C)(C)C)C(C)(C)C)Oc1nc3ccccc3n1CCCCCCCC1(CC1)S(=O)(=O)NC2=O [Compound 6] | > 1000 | 100 to 1000 |
| CC[C@@H]1C[C@@]12NC(=O)[C@@H]1C[C@H](CN1C(=O)[C@@H](NC(=O)OC(C)(C)C)C(C)(C)C)Oc1nc3ccccc3n1CCC/C=C\CCC1(CC1)S(=O)(=O)NC2=O [Compound 5] | > 1000 | < 100 |
